Results published in ChEMBL document CHEMBL1141825, “Chemistry of verongida sponges. 9.1 secondary metabolite composition of the caribbean sponge aplysina cauliformis” (J Nat Prod, 1999).
Values after ≈ are worked out from the molar mass of the structure shown.

Tested on: HeLa
Assay: Antiproliferative activity against human HeLa cells assessed as [3H]thymidine incorporation after 72 hrs by miniaturized, improved, nucleic acid precursor incorporation assay
Type: functional, cell-based

IC50: 50 µg/mL (≈ 95.2 µM)
SMILES: COC(=O)NCC(=O)CCNC(=O)C1=NO[C@]2(C=C(Br)C(OC)=C(Br)[C@@H]2O)C1
